Source: a compilation of properties of binary mixtures (doi:10.4028/www.scientific.net/amr.864-867.125)

Test: xn = mol fraction of the nth substance listed
Conditions: 101 kPa

CCCC[n+]1ccn(C)c1.F[P-](F)(F)(F)(F)F + Cc1ccccc1
viscosity [mPa·s]
Conditions | x2 = 0.05 | x2 = 0.1 | x2 = 0.2 | x2 = 0.3 | x2 = 0.4
298.15 K | – | 149.5 | 111.5 | 67.3 | 42.9
300.65 K | 126.7 | 99.9 | – | 50.1 | –
303.15 K | 98 | – | 55.7 | – | 24.6
305.65 K | 79 | 57.3 | 44.2 | – | 20.42
308.15 K | 65.7 | 47 | 36.8 | – | 17.61
310.65 K | 56 | – | 31.7 | 24 | 15.61
313.15 K | 48.7 | 34.7 | 27.9 | 21.33 | –
315.65 K | 43.1 | 30.8 | 25.1 | 19.23 | 12.97
318.15 K | 38.7 | 27.8 | 22.96 | – | 12.06
320.65 K | 35.1 | 25.4 | 21.23 | – | –
323.15 K | 32.2 | 23.49 | 19.82 | 15.09 | 10.71
325.65 K | 29.8 | 21.91 | 18.66 | 14.15 | 10.21
328.15 K | – | 20.59 | 17.68 | 13.36 | 9.77
330.65 K | – | 19.47 | 16.85 | 12.68 | 9.4
333.15 K | 24.5 | 18.52 | 16.14 | 12.09 | 9.08
335.65 K | 23.16 | 17.69 | 15.52 | 11.58 | –
338.15 K | – | 16.96 | 14.98 | 11.13 | 8.56
